Test results: the supplement of paper PMC6045584
± gives the standard deviation of the averaged measurements.

Tests used:
[1] = compound: CCn1c(C(=O)N(C2CC2)C2CC2)cc2c3c(ncn3C)c(Nc3cc(C)n(C)n3)nc21; assay: surviving fraction relative to DMSO-only wells; higher = less growth inhibition; conditions: exposure time: 5 days
Procedure, shortened: (§1)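 Surviving fraction was calculated by normalising CellTiter-Glo luminescence to the median of DMSO-only wells. Tumour cell lines in log phase were seeded in 384-well plates at 250–500 cells per well, and 24 hours later were exposed continuously for five days to inhibitors at 0.5, 1, 5, 10, 50, 100, 500 and 1000 nM.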

SOTRASTAURIN/AEB071 = compound: CN1CCN(c2nc(C3=C(c4c[nH]c5ccccc45)C(=O)NC3=O)c3ccccc3n2)CC1 [SOTRASTAURIN/AEB071]; assay: as above; conditions: exposure time: 5 days
Procedure, shortened: as §1

G292 BONE
surviving fraction ([1]; 0.5 nM): 0.983 ± 0.044
surviving fraction ([1]; 1 nM): 0.978 ± 0.019
surviving fraction ([1]; 5 nM): 1.01 ± 0.056
surviving fraction ([1]; 10 nM): 1.01 ± 0.038
surviving fraction ([1]; 50 nM): 1.03 ± 0.04
surviving fraction ([1]; 100 nM): 1.028 ± 0.0063
surviving fraction ([1]; 500 nM): 0.952 ± 0.021
surviving fraction ([1]; 1000 nM): 0.97 ± 0.036
surviving fraction (SOTRASTAURIN/AEB071; 0.5 nM): 1.04 ± 0.016
surviving fraction (SOTRASTAURIN/AEB071; 1 nM): 1.002 ± 0.0081
surviving fraction (SOTRASTAURIN/AEB071; 5 nM): 1.04 ± 0.057
surviving fraction (SOTRASTAURIN/AEB071; 10 nM): 1.01 ± 0.025
surviving fraction (SOTRASTAURIN/AEB071; 50 nM): 1.02 ± 0.072
surviving fraction (SOTRASTAURIN/AEB071; 100 nM): 0.987 ± 0.077
surviving fraction (SOTRASTAURIN/AEB071; 500 nM): 0.969 ± 0.024
surviving fraction (SOTRASTAURIN/AEB071; 1000 nM): 0.982 ± 0.046

HCC38 BREAST
surviving fraction ([1]; 0.5 nM): 1.26 ± 0.17
surviving fraction ([1]; 1 nM): 1.2 ± 0.084
surviving fraction ([1]; 5 nM): 1.28 ± 0.02
surviving fraction ([1]; 10 nM): 1.14 ± 0.063
surviving fraction ([1]; 50 nM): 1.19 ± 0.11
surviving fraction ([1]; 100 nM): 1.23 ± 0.099
surviving fraction ([1]; 500 nM): 1.22 ± 0.18
surviving fraction ([1]; 1000 nM): 1.24 ± 0.17
surviving fraction (SOTRASTAURIN/AEB071; 0.5 nM): 0.974 ± 0.11
surviving fraction (SOTRASTAURIN/AEB071; 1 nM): 0.913 ± 0.14
surviving fraction (SOTRASTAURIN/AEB071; 5 nM): 1.02 ± 0.16
surviving fraction (SOTRASTAURIN/AEB071; 10 nM): 1.16 ± 0.23
surviving fraction (SOTRASTAURIN/AEB071; 50 nM): 0.851 ± 0.19
surviving fraction (SOTRASTAURIN/AEB071; 100 nM): 0.874 ± 0.042
surviving fraction (SOTRASTAURIN/AEB071; 500 nM): 0.759 ± 0.11
surviving fraction (SOTRASTAURIN/AEB071; 1000 nM): 0.805 ± 0.12

HCC70 BREAST
surviving fraction ([1]; 0.5 nM): 0.976 ± 0.033
surviving fraction ([1]; 1 nM): 0.984 ± 0.15
surviving fraction ([1]; 5 nM): 1.03 ± 0.093
surviving fraction ([1]; 10 nM): 0.97 ± 0.041
surviving fraction ([1]; 50 nM): 1.055 ± 0.0098
surviving fraction ([1]; 100 nM): 1.06 ± 0.055
surviving fraction ([1]; 500 nM): 0.939 ± 0.026
surviving fraction ([1]; 1000 nM): 0.946 ± 0.068
surviving fraction (SOTRASTAURIN/AEB071; 0.5 nM): 1.17 ± 0.049
surviving fraction (SOTRASTAURIN/AEB071; 1 nM): 1.05 ± 0.073
surviving fraction (SOTRASTAURIN/AEB071; 5 nM): 1.1 ± 0.046
surviving fraction (SOTRASTAURIN/AEB071; 10 nM): 1.14 ± 0.02
surviving fraction (SOTRASTAURIN/AEB071; 50 nM): 1.15 ± 0.024
surviving fraction (SOTRASTAURIN/AEB071; 100 nM): 1.18 ± 0.038
surviving fraction (SOTRASTAURIN/AEB071; 500 nM): 1.25 ± 0.029
surviving fraction (SOTRASTAURIN/AEB071; 1000 nM): 1.22 ± 0.06

HMLE3 BREAST
surviving fraction ([1]; 0.5 nM): 0.951 ± 0.038
surviving fraction ([1]; 1 nM): 0.942 ± 0.037
surviving fraction ([1]; 5 nM): 0.977 ± 0.09
surviving fraction ([1]; 10 nM): 0.949 ± 0.072
surviving fraction ([1]; 50 nM): 0.953 ± 0.088
surviving fraction ([1]; 100 nM): 0.956 ± 0.061
surviving fraction ([1]; 500 nM): 0.914 ± 0.036
surviving fraction ([1]; 1000 nM): 0.906 ± 0.056
surviving fraction (SOTRASTAURIN/AEB071; 0.5 nM): 1.11 ± 0.098
surviving fraction (SOTRASTAURIN/AEB071; 1 nM): 1.1 ± 0.057
surviving fraction (SOTRASTAURIN/AEB071; 5 nM): 1.15 ± 0.034
surviving fraction (SOTRASTAURIN/AEB071; 10 nM): 1.13 ± 0.061
surviving fraction (SOTRASTAURIN/AEB071; 50 nM): 1.12 ± 0.087
surviving fraction (SOTRASTAURIN/AEB071; 100 nM): 1.02 ± 0.078
surviving fraction (SOTRASTAURIN/AEB071; 500 nM): 0.961 ± 0.12
surviving fraction (SOTRASTAURIN/AEB071; 1000 nM): 0.831 ± 0.084

HMT3552 BREAST
surviving fraction ([1]; 0.5 nM): 0.943
surviving fraction ([1]; 1 nM): 0.942
surviving fraction ([1]; 5 nM): 1.08
surviving fraction ([1]; 10 nM): 1.03
surviving fraction ([1]; 50 nM): 1.23
surviving fraction ([1]; 100 nM): 1.18
surviving fraction ([1]; 500 nM): 1.18
surviving fraction ([1]; 1000 nM): 1.27
surviving fraction (SOTRASTAURIN/AEB071; 0.5 nM): 0.982 ± 0.13
surviving fraction (SOTRASTAURIN/AEB071; 1 nM): 0.975 ± 0.012
surviving fraction (SOTRASTAURIN/AEB071; 5 nM): 0.984 ± 0.037
surviving fraction (SOTRASTAURIN/AEB071; 10 nM): 1.04 ± 0.04
surviving fraction (SOTRASTAURIN/AEB071; 50 nM): 1.03 ± 0.059
surviving fraction (SOTRASTAURIN/AEB071; 100 nM): 1.04 ± 0.013
surviving fraction (SOTRASTAURIN/AEB071; 500 nM): 1.3 ± 0.11
surviving fraction (SOTRASTAURIN/AEB071; 1000 nM): 1.24 ± 0.06

HS57T BREAST
surviving fraction ([1]; 0.5 nM): 0.959 ± 0.063
surviving fraction ([1]; 1 nM): 0.892 ± 0.0062
surviving fraction ([1]; 5 nM): 1 ± 0.045
surviving fraction ([1]; 10 nM): 0.967 ± 0.037
surviving fraction ([1]; 50 nM): 1.08 ± 0.055
surviving fraction ([1]; 100 nM): 1.01 ± 0.017
surviving fraction ([1]; 500 nM): 0.934 ± 0.049
surviving fraction ([1]; 1000 nM): 0.917 ± 0.055
surviving fraction (SOTRASTAURIN/AEB071; 0.5 nM): 1.06 ± 0.044
surviving fraction (SOTRASTAURIN/AEB071; 1 nM): 1.08 ± 0.026
surviving fraction (SOTRASTAURIN/AEB071; 5 nM): 1.12 ± 0.056
surviving fraction (SOTRASTAURIN/AEB071; 10 nM): 1.09 ± 0.063
surviving fraction (SOTRASTAURIN/AEB071; 50 nM): 1.03 ± 0.092
surviving fraction (SOTRASTAURIN/AEB071; 100 nM): 1.05 ± 0.028
surviving fraction (SOTRASTAURIN/AEB071; 500 nM): 1.03 ± 0.031
surviving fraction (SOTRASTAURIN/AEB071; 1000 nM): 1 ± 0.087

HS578T BREAST
surviving fraction ([1]; 0.5 nM): 1.13 ± 0.053
surviving fraction ([1]; 1 nM): 0.828 ± 0.05
surviving fraction ([1]; 5 nM): 1 ± 0.12
surviving fraction ([1]; 10 nM): 1.01 ± 0.15
surviving fraction ([1]; 50 nM): 0.821 ± 0.06
surviving fraction ([1]; 100 nM): 1.09 ± 0.15
surviving fraction ([1]; 500 nM): 0.999 ± 0.049
surviving fraction ([1]; 1000 nM): 0.989 ± 0.073
surviving fraction (SOTRASTAURIN/AEB071; 0.5 nM): 0.899 ± 0.11
surviving fraction (SOTRASTAURIN/AEB071; 1 nM): 0.861 ± 0.083
surviving fraction (SOTRASTAURIN/AEB071; 5 nM): 0.977 ± 0.27
surviving fraction (SOTRASTAURIN/AEB071; 10 nM): 0.954 ± 0.11
surviving fraction (SOTRASTAURIN/AEB071; 50 nM): 1.06 ± 0.16
surviving fraction (SOTRASTAURIN/AEB071; 100 nM): 0.916 ± 0.057
surviving fraction (SOTRASTAURIN/AEB071; 500 nM): 0.877 ± 0.064
surviving fraction (SOTRASTAURIN/AEB071; 1000 nM): 1.01 ± 0.17
